Among the data in patent US12252524B2, “GIP/GLP1 co-agonist compounds” (Eli Lilly and Company, priority 2018, dated 2025) are Ki and EC50 values, retold here.

Numbered stars: 1 amine (or outer) side, 2 acyl side, 3 side chain; on linkers, the order of the positions; unused ones are H or OH. Square brackets hold non-standard residues; d marks the D form. Side chains are listed from the residue outwards. Peptide text beside a SMILES is read from it. * marks the point of attachment. C20 diacid = O=C(O)CCCCCCCCCCCCCCCCCCC(=O)*; C18 diacid = O=C(O)CCCCCCCCCCCCCCCCC(=O)*; γGlu = O=C(O)[C@H](CCC(=O)[*:2])N[*:1]; αMeF = C[C@](N)(Cc1ccccc1)C(=O)O; αMeL = CC(C)C[C@](C)(N)C(=O)O; AEEA = NCCOCCOCC(=O)O; Aib = CC(C)(N)C(=O)O

One assay deals with T1, human Gcg receptor (Homo sapiens, UniProt P47871).
T1 construct: expressed in transfected cells; crude membranes
As to the kind of experiment: [125I]-Glucagon binding (SPA), human Gcg receptor. The settings on record: read-out: hGLcgR Ki, nM (SEM, n). The procedure, abridged: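 Crude membranes from cells expressing the receptor, prepared by hypotonic lysis in 50 mM Tris HCl pH 7.5 with protease inhibitors, homogenization and differential centrifugation, were used in a WGA-bead SPA. Binding buffer: 25 mM HEPES pH 7.4, 2.5 mM CaCl2, 1 mM MgCl2, bacitracin, Tween-20.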

The target of a further assay is human GLP-1R (Homo sapiens, UniProt P43220). Nature of the assay: [125I]-GLP-1 binding (SPA), human GLP-1 receptor. Also noted: expressed in transfected cells; crude membranes. The settings on record: read-out: hGLP1R Ki, (nM) (SEM, n). The procedure, abridged: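 Frozen cell pellets are lysed on ice in hypotonic Tris buffer, pH 7.5, homogenized, and centrifuged to a membrane pellet resuspended at about 1 to 3 mg/mL. Binding is then measured in HEPES-based buffer at pH 7.4, and curves are fitted to give IC50 and Ki.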

The target in another assay is T2, human GIP receptor (Homo sapiens, UniProt P48546).
T2 construct: expressed in transfected cells; crude membranes
T2 sequence (P48546 22-466): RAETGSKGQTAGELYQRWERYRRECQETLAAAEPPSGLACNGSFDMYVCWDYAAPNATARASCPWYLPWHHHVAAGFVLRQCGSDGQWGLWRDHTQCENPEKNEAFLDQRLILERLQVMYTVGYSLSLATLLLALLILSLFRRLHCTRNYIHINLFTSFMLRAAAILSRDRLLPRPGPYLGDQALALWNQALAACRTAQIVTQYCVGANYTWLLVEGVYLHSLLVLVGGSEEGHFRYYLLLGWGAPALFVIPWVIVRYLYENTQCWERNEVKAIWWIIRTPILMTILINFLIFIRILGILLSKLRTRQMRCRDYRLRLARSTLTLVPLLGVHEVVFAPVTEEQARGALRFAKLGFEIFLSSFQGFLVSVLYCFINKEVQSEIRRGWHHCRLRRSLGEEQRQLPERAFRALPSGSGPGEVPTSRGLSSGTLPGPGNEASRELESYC
Nature of the assay: [125I]-GIP binding (SPA), human GIP receptor. The settings on record: read-out: hGIPR Ki, nM (SEM, n).

The target in assay [1] is T3, gastric inhibitory peptide receptor (GIPR) (Homo sapiens, UniProt P48546).
T3 sequence (P48546 22-466): T2 sequence (P48546 22-466)
Nature of the assay: cAMP pharmacological functional assay in presence of casein, hGIPR. It counts as cell-based. The settings on record: HEK293 cells expressing hGIPR, 0.1% Casein, geometric mean; read-out: hGIPR cAMP Rel EC50 nM (SEM, n).

For assay [2], the target named is human GLP-1 receptor (GLP-1R) (Homo sapiens, UniProt P43220). As to the kind of experiment: cAMP pharmacological functional assay in presence of casein, hGLP-1R. Format: cell-based. The settings on record: HEK293 cells expressing hGLP-1R, 0.1% Casein, geometric mean; read-out: hGLP1R cAMP Rel EC50 nM (SEM, n).

Usually Ki stands for a measure of affinity in units of concentration, obtained from inhibition or displacement. As a reminder, the EC50 is the concentration at which the effect is half-maximal.

Chain of human GLP-1 receptor (GLP-1R) (P43220 24-463): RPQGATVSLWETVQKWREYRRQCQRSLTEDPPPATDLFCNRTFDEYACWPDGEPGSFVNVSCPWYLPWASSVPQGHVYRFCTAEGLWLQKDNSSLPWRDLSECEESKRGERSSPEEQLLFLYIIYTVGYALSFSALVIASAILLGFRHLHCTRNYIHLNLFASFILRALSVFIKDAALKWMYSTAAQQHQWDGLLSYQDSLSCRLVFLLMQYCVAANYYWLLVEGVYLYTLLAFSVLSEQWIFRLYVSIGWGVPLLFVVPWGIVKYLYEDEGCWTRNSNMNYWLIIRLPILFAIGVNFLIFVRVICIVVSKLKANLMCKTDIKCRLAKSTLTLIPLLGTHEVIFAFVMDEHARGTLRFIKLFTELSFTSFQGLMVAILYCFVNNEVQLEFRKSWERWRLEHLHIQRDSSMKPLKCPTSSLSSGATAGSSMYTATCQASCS
Chain of human GLP-1R (P43220 24-463): as above
T1 sequence (P47871 26-477): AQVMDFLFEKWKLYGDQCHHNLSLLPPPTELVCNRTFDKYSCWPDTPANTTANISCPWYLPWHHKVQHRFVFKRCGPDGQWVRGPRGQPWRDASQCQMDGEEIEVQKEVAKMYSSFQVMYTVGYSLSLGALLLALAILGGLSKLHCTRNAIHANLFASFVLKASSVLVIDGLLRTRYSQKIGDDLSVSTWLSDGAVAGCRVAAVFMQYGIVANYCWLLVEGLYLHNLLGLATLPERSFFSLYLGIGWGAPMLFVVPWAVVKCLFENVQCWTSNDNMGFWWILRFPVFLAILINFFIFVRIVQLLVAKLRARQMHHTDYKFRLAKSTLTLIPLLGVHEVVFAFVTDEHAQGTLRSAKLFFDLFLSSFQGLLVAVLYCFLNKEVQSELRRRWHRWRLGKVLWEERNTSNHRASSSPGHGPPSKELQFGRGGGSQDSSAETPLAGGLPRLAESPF

As to `CC[C@H](C)[C@H](NC(=O)[C@H](CC(C)C)NC(=O)[C@H](Cc1ccc(O)cc1)NC(=O)[C@H](CCC(=O)O)NC(=O)[C@@H](NC(=O)[C@H](Cc1ccccc1)NC(=O)[C@H](CCC(=O)O)NC(=O)C(C)(C)NC(=O)[C@H](CCC(N)=O)NC(=O)[C@H](C)NC(=O)[C@H](CCCCNC(=O)COCCOCCNC(=O)COCCOCCNC(=O)CC[C@H](NC(=O)CCCCCCCCCCCCCCCCC(=O)O)C(=O)O)NC(=O)[C@H](CCCCN)NC(=O)[C@H](CC(=O)O)NC(=O)[C@H](CC(C)C)NC(=O)[C@H](CC(C)C)NC(=O)[C@@H](NC(=O)[C@H](CO)NC(=O)[C@H](Cc1ccc(O)cc1)NC(=O)[C@H](CC(=O)O)NC(=O)[C@H](CO)NC(=O)[C@@H](NC(=O)[C@H](Cc1ccccc1)NC(=O)[C@@H](NC(=O)CNC(=O)[C@H](CCC(=O)O)NC(=O)C(C)(C)NC(=O)[C@@H](N)Cc1ccc(O)cc1)[C@@H](C)O)[C@@H](C)O)[C@@H](C)CC)[C@@H](C)CC)C(=O)N[C@@H](C)C(=O)NCC(=O)NCC(N)=O` [Example 297] (H-Y[Aib]EGTFTSDYSILLDKK([AEEA-AEEA-γGlu-C18 diacid])AQ[Aib]EFIEYLIAGG-NH2), the Ki on human Gcg receptor is over 1240 nM; at human GLP-1R, 2.98 nM; at human GIP receptor it was 0.0958 nM. The results for the 50% effective concentration (EC50) in assay [1] and in assay [2] were 0.0451 nM and 0.111 nM, respectively.
Consider `CC[C@H](C)[C@H](NC(=O)[C@H](CC(C)C)NC(=O)[C@H](Cc1ccc(O)cc1)NC(=O)[C@H](CCC(=O)O)NC(=O)[C@@H](NC(=O)[C@H](Cc1ccccc1)NC(=O)[C@H](CCC(=O)O)NC(=O)C(C)(C)NC(=O)[C@H](CCC(N)=O)NC(=O)[C@H](C)NC(=O)[C@H](CCCCNC(=O)COCCOCCNC(=O)COCCOCCNC(=O)CC[C@H](NC(=O)CCCCCCCCCCCCCCCCCCC(=O)O)C(=O)O)NC(=O)[C@H](CCC(=O)O)NC(=O)[C@H](CC(=O)O)NC(=O)[C@H](CC(C)C)NC(=O)[C@](C)(CC(C)C)NC(=O)[C@@H](NC(=O)[C@H](CO)NC(=O)[C@H](Cc1ccc(O)cc1)NC(=O)[C@H](CC(=O)O)NC(=O)[C@H](CO)NC(=O)[C@@H](NC(=O)[C@](C)(Cc1ccccc1)NC(=O)[C@@H](NC(=O)CNC(=O)[C@H](CCC(=O)O)NC(=O)C(C)(C)NC(=O)[C@@H](N)Cc1ccc(O)cc1)[C@@H](C)O)[C@@H](C)O)[C@@H](C)CC)[C@@H](C)CC)C(=O)N[C@@H](CCC(=O)O)C(=O)NCC(=O)NCC(=O)N1CCC[C@H]1C(=O)N[C@@H](CO)C(=O)N[C@@H](CO)C(=O)NCC(=O)N[C@@H](C)C(=O)N1CCC[C@H]1C(=O)N1CCC[C@H]1C(=O)N1CCC[C@H]1C(=O)N[C@@H](CO)C(N)=O` [Example 116] (H-Y[Aib]EGT[αMeF]TSDYSI[αMeL]LDEK([AEEA-AEEA-γGlu-C20 diacid])AQ[Aib]EFIEYLIEGGPSSGAPPPS-NH2), for which the figures for the Ki at human Gcg receptor, on human GLP-1R and on human GIP receptor were 137 nM, 6.8 nM and 0.0597 nM, respectively. The figures for the 50% effective concentration (EC50) in assay [1] and in assay [2] were 0.0867 nM and 0.0703 nM, respectively.
On to `CC[C@H](C)[C@H](NC(=O)[C@H](CCCCN)NC(=O)[C@H](CC(=O)O)NC(=O)[C@H](CC(C)C)NC(=O)[C@H](CC(C)C)NC(=O)[C@@H](NC(=O)[C@H](CCCCNC(=O)COCCOCCNC(=O)COCCOCCNC(=O)CC[C@H](NC(=O)CCCCCCCCCCCCCCCCCCC(=O)O)C(=O)O)NC(=O)[C@H](Cc1ccc(O)cc1)NC(=O)[C@H](CC(=O)O)NC(=O)[C@H](CO)NC(=O)[C@@H](NC(=O)[C@H](Cc1ccccc1)NC(=O)[C@@H](NC(=O)CNC(=O)[C@H](CCC(=O)O)NC(=O)C(C)(C)NC(=O)[C@@H](N)Cc1ccc(O)cc1)[C@@H](C)O)[C@@H](C)O)[C@@H](C)CC)C(=O)N[C@@H](C)C(=O)N[C@@H](CCC(N)=O)C(=O)NC(C)(C)C(=O)N[C@@H](C)C(=O)N[C@@H](Cc1ccccc1)C(=O)N[C@H](C(=O)N[C@@H](CCC(=O)O)C(=O)N[C@@H](Cc1ccc(O)cc1)C(=O)N[C@@H](CC(C)C)C(=O)N[C@H](C(=O)N[C@@H](CCC(=O)O)C(=O)NCC(=O)NCC(=O)N1CCC[C@H]1C(=O)N[C@@H](CO)C(=O)N[C@@H](CO)C(=O)NCC(=O)N[C@@H](C)C(=O)N1CCC[C@H]1C(=O)N1CCC[C@H]1C(=O)N1CCC[C@H]1C(=O)N[C@@H](CO)C(N)=O)[C@@H](C)CC)[C@@H](C)CC` [Example 24] (H-Y[Aib]EGTFTSDYK([AEEA-AEEA-γGlu-C20 diacid])ILLDKIAQ[Aib]AFIEYLIEGGPSSGAPPPS-NH2), for which the inhibition constant Ki is 49.8 nM on human Gcg receptor, 5.04 nM at human GLP-1R and 0.232 nM at human GIP receptor. Also, the half-maximal effective concentration (EC50) stood at 0.762 nM in assay [1] and 13 nM in assay [2].
The like results for `CC[C@H](C)[C@H](NC(=O)[C@H](CC(C)C)NC(=O)[C@H](Cc1ccc(O)cc1)NC(=O)[C@@H](CCC(=O)O)NC(=O)[C@@H](NC(=O)[C@H](Cc1ccccc1)NC(=O)[C@H](CCC(=O)O)NC(=O)C(C)(C)NC(=O)[C@H](CCC(N)=O)NC(=O)[C@H](C)NC(=O)[C@H](CCCCNC(=O)COCCOCCNC(=O)COCCOCCNC(=O)CC[C@H](NC(=O)CCCCCCCCCCCCCCCCCCC(=O)O)C(=O)O)NC(=O)[C@H](CCC(=O)O)NC(=O)[C@H](CC(=O)O)NC(=O)[C@H](CC(C)C)NC(=O)C(C)(C)NC(=O)[C@@H](NC(=O)[C@H](CO)NC(=O)[C@H](Cc1ccc(O)cc1)NC(=O)[C@H](CC(=O)O)NC(=O)[C@H](CO)NC(=O)[C@@H](NC(=O)[C@](C)(Cc1ccccc1)NC(=O)[C@@H](NC(=O)CNC(=O)[C@H](CCC(=O)O)NC(=O)C(C)(C)NC(=O)[C@@H](N)Cc1ccc(O)cc1)[C@@H](C)O)[C@@H](C)O)[C@@H](C)CC)[C@@H](C)CC)C(=O)N[C@@H](CCC(=O)O)C(=O)NCC(=O)NCC(=O)N1CCC[C@H]1C(=O)N[C@@H](CO)C(=O)N[C@@H](CO)C(=O)NCC(=O)N[C@@H](C)C(=O)N1CCC[C@H]1C(=O)N1CCC[C@H]1C(=O)N1CCC[C@H]1C(=O)N[C@@H](CO)C(N)=O` [Example 225] (H-Y[Aib]EGT[αMeF]TSDYSI[Aib]LDEK([AEEA-AEEA-γGlu-C20 diacid])AQ[Aib]EFI[dE]YLIEGGPSSGAPPPS-NH2) were, in that order, 714 nM, 8.79 nM, 0.0622 nM, 0.101 nM and 0.067 nM.
The like results for `CC[C@H](C)[C@H](NC(=O)[C@H](CC(C)C)NC(=O)[C@H](Cc1ccc(O)cc1)NC(=O)[C@H](CCC(=O)O)NC(=O)[C@@H](NC(=O)[C@H](Cc1ccccc1)NC(=O)[C@H](C)NC(=O)C(C)(C)NC(=O)[C@H](CCC(N)=O)NC(=O)[C@H](C)NC(=O)[C@H](CCCCNC(=O)COCCOCCNC(=O)COCCOCCNC(=O)CC[C@H](NC(=O)CCCCCCCCCCCCCCCCCCC(=O)O)C(=O)O)NC(=O)[C@H](CO)NC(=O)[C@H](CC(=O)O)NC(=O)[C@H](CC(C)C)NC(=O)[C@](C)(CC(C)C)NC(=O)[C@@H](NC(=O)[C@H](CO)NC(=O)[C@H](Cc1ccc(O)cc1)NC(=O)[C@H](CC(=O)O)NC(=O)[C@H](CO)NC(=O)[C@@H](NC(=O)[C@H](Cc1ccccc1)NC(=O)[C@@H](NC(=O)CNC(=O)[C@H](CCC(=O)O)NC(=O)C(C)(C)NC(=O)[C@@H](N)Cc1ccc(O)cc1)[C@@H](C)O)[C@@H](C)O)[C@@H](C)CC)[C@@H](C)CC)C(=O)N[C@@H](CCC(=O)O)C(=O)NCC(=O)NCC(N)=O` [Example 64] (H-Y[Aib]EGTFTSDYSI[αMeL]LDSK([AEEA-AEEA-γGlu-C20 diacid])AQ[Aib]AFIEYLIEGG-NH2) were, in that order, 260 nM, 4.86 nM, 0.0866 nM, 0.0916 nM and 0.172 nM.
